Reference: patent US20050054696A1, “Indole compounds and medicinal use thereof” (priority 2001, published 2005)

Biological target: T1, recombinant human liver glycogen phosphorylase (HLGPa) (Homo sapiens, UniProt P06737)
T1 construct: made in house; host or cells: Sf9 insect cells (unpurified cell lysate used as enzyme solution)
T1 sequence (P06737 1-847): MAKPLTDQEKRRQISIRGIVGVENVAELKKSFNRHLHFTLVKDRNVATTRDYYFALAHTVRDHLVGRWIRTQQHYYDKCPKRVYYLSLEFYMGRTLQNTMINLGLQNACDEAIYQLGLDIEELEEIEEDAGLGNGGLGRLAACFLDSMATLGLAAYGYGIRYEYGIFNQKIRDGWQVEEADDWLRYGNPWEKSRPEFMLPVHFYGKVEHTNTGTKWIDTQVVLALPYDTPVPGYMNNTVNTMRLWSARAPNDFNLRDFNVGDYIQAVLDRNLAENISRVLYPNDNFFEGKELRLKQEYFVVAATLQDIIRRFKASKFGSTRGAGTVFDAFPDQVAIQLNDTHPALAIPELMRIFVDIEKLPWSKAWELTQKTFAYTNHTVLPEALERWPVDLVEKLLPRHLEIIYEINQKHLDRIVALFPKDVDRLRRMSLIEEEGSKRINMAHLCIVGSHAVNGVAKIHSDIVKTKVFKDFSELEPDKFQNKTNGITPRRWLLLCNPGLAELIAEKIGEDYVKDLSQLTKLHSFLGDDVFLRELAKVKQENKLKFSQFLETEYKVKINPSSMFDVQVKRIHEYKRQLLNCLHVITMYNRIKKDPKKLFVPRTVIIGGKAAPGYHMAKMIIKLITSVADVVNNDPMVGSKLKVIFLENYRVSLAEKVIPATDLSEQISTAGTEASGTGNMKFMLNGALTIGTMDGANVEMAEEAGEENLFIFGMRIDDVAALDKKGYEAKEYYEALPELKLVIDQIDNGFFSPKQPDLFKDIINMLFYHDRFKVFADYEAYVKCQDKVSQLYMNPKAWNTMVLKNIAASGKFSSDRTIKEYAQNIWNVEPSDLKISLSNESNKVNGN
Experiment: Measurement of liver glycogen phosphorylase activity (enzyme inhibitory activity against HLGPa)
Assay type: biochemical
Settings: Sf9 cell lysate expressing recombinant enzyme; reverse reaction (glycogen synthesis from G1-P), phosphate by malachite green, 60 min room temperature
In short: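 Activity was run in the reverse, glycogen-synthesis direction, using Sf9 lysate expressing recombinant human liver glycogen phosphorylase (enzyme solution 80 μg/mL protein, pH 7.0). Substrate solution was Tris pH 7.2 with 1.25 mM glucose-1-phosphate, 2.5 mg/ml glycogen and 7.5 mM glucose, reacted 60 min at room temperature. Released phosphate was measured by malachite green A650, with % inhibition taken against DMSO control and no-enzyme blank.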

Row | SMILES | IC50
1 | Cc1ccccc1N1CCC(=O)N(NC(=O)c2cc3cc(Cl)ccc3[nH]2)C1=O [Example 3-15, 5-chloro-1H-indole-2-carboxylic acid (2,4-dioxo-1-(o-tolyl)perhydropyrimidin-3-yl)amide] | 150 nM
2 | O=C(NN1C(=O)CN(c2ccccc2)C1=O)c1cc2cc(Cl)ccc2[nH]1 [Example 4-2, N-(2,4-dioxo-1-phenylimidazolidin-3-yl)-5-chloro-1H-indole-2-carboxamide] | 23 nM
3 | O=C(NN1C(=O)CN(c2ccccc2)C1=S)c1cc2cc(Cl)ccc2[nH]1 [Example 4-3, N-(4-oxo-1-phenyl-2-thioxoimidazolidin-3-yl)-5-chloro-1H-indole-2-carboxamide] | > 100 nM
4 | O=C(NN1CN(c2ccccc2)CC1=O)c1cc2cc(Cl)ccc2[nH]1 [Example 4-4, N-(1-oxo-4-phenylimidazolidin-2-yl)-5-chloro-1H-indole-2-carboxamide] | > 100 nM
5 | O=C(NN1CCN(c2ccccc2)C1=O)c1cc2cc(Cl)ccc2[nH]1 [Example 4-5, N-(2-oxo-1-phenylimidazolidin-3-yl)-5-chloro-1H-indole-2-carboxamide] | > 100 nM
6 | O=C(NN1C(=O)[C@@H]2CCCN2C1=O)c1cc2cc(Cl)ccc2[nH]1 [Example 4-7, 5-chloro-1H-indole-2-carboxylic acid ((4S)-1,3-dioxo-perhydropyrrolo[1,2-c]imidazol-2-yl)amide] | > 100 nM
7 | O=C(NN1C(=O)[C@H]2CCCN2C1=O)c1cc2cc(Cl)ccc2[nH]1 [Example 4-8, 5-chloro-1H-indole-2-carboxylic acid ((4R)-1,3-dioxo-perhydropyrrolo[1,2-c]imidazol-2-yl)amide] | > 100 nM
8 | O=C(NN1C(=O)N[C@@H](Cc2ccccc2)C1=O)c1cc2cc(Cl)ccc2[nH]1 [Example 4-9, 5-chloro-1H-indole-2-carboxylic acid ((4S)-4-benzyl-2,5-dioxoimidazolidin-1-yl)amide] | > 100 nM
9 | O=C(NN1C(=O)N[C@H](Cc2ccccc2)C1=O)c1cc2cc(Cl)ccc2[nH]1 [Example 4-10, 5-chloro-1H-indole-2-carboxylic acid ((4R)-4-benzyl-2,5-dioxoimidazolidin-1-yl)amide] | > 100 nM
10 | O=C(NN1C(=O)CNC1=O)c1cc2cc(Cl)ccc2[nH]1 [Example 4-11, 5-chloro-1H-indole-2-carboxylic acid (2,4-dioxoimidazolidin-3-yl)amide] | > 100 nM
11 | CN1C(=O)N(NC(=O)c2cc3cc(Cl)ccc3[nH]2)C(=O)[C@@H]1c1ccccc1 [Example 4-12, 5-chloro-1H-indole-2-carboxylic acid (1-methyl-2,5-dioxo-4-phenylimidazolidin-1-yl)amide] | > 100 nM
12 | O=C(NN1C(=O)CN(c2ccc(F)cc2)C1=O)c1cc2cc(Cl)ccc2[nH]1 [Example 4-13, 5-chloro-1H-indole-2-carboxylic acid (2,4-dioxo-1-(4-fluorophenyl)imidazolidin-3-yl)amide] | > 100 nM
13 | O=C(NN1C(=O)NC(c2ccccc2F)C1=O)c1cc2cc(Cl)ccc2[nH]1 (stereo not drawn) [Example 4-14, 5-chloro-1H-indole-2-carboxylic acid (2,5-dioxo-4-(2-fluorophenyl)imidazolidin-1-yl)amide] | 110 nM
14 | O=C(NN1C(=O)N[C@@H](c2ccc(O)cc2)C1=O)c1cc2cc(Cl)ccc2[nH]1 [Example 4-18, 5-chloro-1H-indole-2-carboxylic acid ((4S)-2,5-dioxo-4-(4-hydroxyphenyl)imidazolidin-1-yl)amide] | 75 nM
15 | COc1ccc([C@H]2NC(=O)N(NC(=O)c3cc4cc(Cl)ccc4[nH]3)C2=O)cc1 [Example 4-20, 5-chloro-1H-indole-2-carboxylic acid ((4R)-2,5-dioxo-4-(4-methoxyphenyl)imidazolidin-1-yl)amide] | 170 nM

More lines, now with the values ahead:

Row | IC50 | SMILES
16 | 79 nM | O=C(NNC(=O)c1cc2cc(Cl)ccc2[nH]1)Nc1ccccc1F [Example 5-5, 5-chloro-1H-indole-2-carboxylic acid 2-((2-fluorophenyl)aminocarbonyl)hydrazide]
17 | 49 nM | O=C(NNC(=O)c1cc2cc(Cl)ccc2[nH]1)Nc1cccc(F)c1 [Example 5-6, 5-chloro-1H-indole-2-carboxylic acid 2-((3-fluorophenyl)aminocarbonyl)hydrazide]
18 | 88 nM | O=C(NNC(=O)c1cc2cc(Cl)ccc2[nH]1)Nc1ccc(F)cc1 [Example 5-7, 5-chloro-1H-indole-2-carboxylic acid 2-((4-fluorophenyl)aminocarbonyl)hydrazide]
19 | > 100 nM | CN(NC(=O)c1cc2cc(Cl)ccc2[nH]1)C(=O)Nc1ccccc1 [Example 5-8, 5-chloro-1H-indole-2-carboxylic acid 2-(anilinocarbonyl)-2-methylhydrazide]
20 | > 100 nM | O=C(NNC(=O)c1cc2cc(Cl)ccc2[nH]1)Nc1ccccc1Cl [Example 5-9, 5-chloro-1H-indole-2-carboxylic acid 2-((2-chloroanilino)carbonyl)hydrazide]
21 | > 100 nM | O=C(NNC(=O)c1cc2cc(Cl)ccc2[nH]1)Nc1cccc(Cl)c1 [Example 5-10, 5-chloro-1H-indole-2-carboxylic acid 2-((3-chloroanilino)carbonyl)hydrazide]
22 | > 100 nM | O=C(NNC(=O)c1cc2cc(Cl)ccc2[nH]1)Nc1ccc(Cl)cc1 [Example 5-11, 5-chloro-1H-indole-2-carboxylic acid 2-((4-chloroanilino)carbonyl)hydrazide]
23 | 290 nM | O=C(NNC(=O)C1(c2ccccc2)CC1)c1cc2cc(Cl)ccc2[nH]1 [Example 5-12, 5-chloro-1H-indole-2-carboxylic acid 2-((1-phenylcyclopropane)carbonyl)hydrazide]
24 | 410 nM | O=C(NNC(=O)C1(c2ccccc2)CCCC1)c1cc2cc(Cl)ccc2[nH]1 [Example 5-13, 5-chloro-1H-indole-2-carboxylic acid 2-((1-phenylcyclopentane)carbonyl)hydrazide]
25 | 300 nM | O=C(NNC(=O)C1(c2ccccc2)CCCCC1)c1cc2cc(Cl)ccc2[nH]1 [Example 5-14, 5-chloro-1H-indole-2-carboxylic acid 2-((1-phenylcyclohexane)carbonyl)hydrazide]
26 | 63 nM | CC(C(=O)NNC(=O)c1cc2cc(Cl)ccc2[nH]1)c1ccccc1 (stereo not drawn) [Example 5-15, 5-chloro-1H-indole-2-carboxylic acid 2-(2-phenylpropanoyl)hydrazide]
27 | > 100 nM | N[C@H](C(=O)NNC(=O)c1cc2cc(Cl)ccc2[nH]1)c1ccccc1 [Example 5-18, 5-chloro-1H-indole-2-carboxylic acid 2-((2S)-2-amino-2-phenylacetyl)hydrazide]
28 | 84 nM | CS(=O)(=O)O.N=C(Cc1ccccc1)NNC(=O)c1cc2cc(Cl)ccc2[nH]1 [Example 6-21, 5-chloro-1H-indole-2-carboxylic acid 2-((1-imino-2-phenylethyl)hydrazide methanesulfonate]
29 | 67 nM | N=C(NNC(=O)c1cc2cc(Cl)ccc2[nH]1)c1ccc(F)c(F)c1 [Example 6-23, 5-chloro-1H-indole-2-carboxylic acid 2-((3,4-difluorophenyl)-imino-methyl)hydrazide methanesulfonate]
30 | 160 nM | COc1ccccc1C(=N)NNC(=O)c1cc2cc(Cl)ccc2[nH]1 [Example 6-24, 5-chloro-1H-indole-2-carboxylic acid 2-(imino-(2-methoxyphenyl)-methyl)hydrazide methanesulfonate]
31 | 330 nM | N=C(NNC(=O)c1cc2cc(Cl)ccc2[nH]1)c1c(F)cccc1F [Example 6-25, 5-chloro-1H-indole-2-carboxylic acid 2-((2,6-difluorophenyl)-imino-methyl)hydrazide methanesulfonate]
32 | 170 nM | Cc1ccc(C(=N)NNC(=O)c2cc3cc(Cl)ccc3[nH]2)n1C [Example 6-27, 5-chloro-1H-indole-2-carboxylic acid 2-((1,2-dimethyl-1H-pyrrol-5-yl)-imino-methyl)hydrazide methanesulfonate]
33 | 250 nM | Cc1ccc2[nH]c(C(=O)NNC(=O)c3ccccc3N)cc2c1 [Example 6-28, 2-aminobenzoic acid 2-(5-methyl-1H-indole-2-carbonyl)hydrazide p-toluenesulfonate]
